Measured values published in publication PMC6804997 (PLoS ONE, 2019).
pIC50: −log10 of the molar value.

Tests used:
HDAC4 = HDAC4 (Homo sapiens, UniProt P56524); assay: HDAC enzyme inhibition assay (Ac-peptide-AMC substrate); assay type: biochemical
Procedure: (§1) HDACs inhibition assay of F7 was performed utilizing 4-amino-7-methylcoumarin (AMC) labeled Ac-peptide (Ac-peptide-AMC) substrates, a service provided by Chempartner Company (Shanghai, China).
(§2) This assay was performed was performed utilizing 4-amino-7-methylcoumarin (AMC) labeled Ac-peptide (Ac-peptide-AMC) substrates, a service provided by Chempartner Company (Shanghai, China).

HDAC5 = HDAC5 (Homo sapiens, UniProt Q9UQL6); assay: as above; assay type: biochemical
Procedure: as §1, §2

[1] = system: rhabdomyolysis-induced AKI in glycerol-injected mice; assay: Glycerol-induced rhabdomyolysis AKI mouse model with F7 pretreatment; assay type: in vivo, C57BL/6 mice
Procedure: After one week of adoption to the housing conditions, the mice were randomly divided into three groups (n = 8): control, glycerol, and glycerol+HDAC6 inhibitor (F7). For the latter two groups, a single intramuscular injection of 50% glycerol dissolved in 0.9% normal saline (10 μl/g) was divided between bilateral back limbs to induce rhabdomyolysis-induced AKI model. The mice in control group received the same dose of saline injection at the place of glycerol. Before glycerol injection, mice in pretreatment group were orally administrated with F7 (dissolved in DEG and diluted with 0.9% saline) at a dose of 40mg/kg/d (200 μl solution for 28g) for 3 days. For control and glycerol groups, mice were treated with the same dose of saline.
All the mice were euthanized via pentobarbital sodium injection (50 mg/kg, i.p.). Terminal blood samples were collected and serum samples were stored at -80°C. Kidney tissues were divided and respectively removed into 10% phosphate buffered formalin for histological staining, and into liquid nitrogen follows by storage at -80°C for further quantitative analysis and immunofluorescence staining.
The serum level of creatinine kinase (CK), blood urea (UREA) and serum creatinine (sCr) were tested using high performance liquid chromatography (HPLC) by Institute of Drug Clinical Trial and the GCP center of West China Hospital of Sichuan University.
Paraffin-embedded kidney tissue samples were cut into 4-um sections and stained with haematoxylin and erosin (H&E) and periodic acid-Schiff (PAS) staining. These sections were viewed using light microscopy at magnifications of ⊆200 and ⊆400 respectively, and semiquantitative estimation of renal tubular damage was performed on a scale from 0 to 4 to grade the percentage of injured/damaged renal tubules: 0 for 0%, 0.5% for <10%, 1 for 10–25%, 2 for 26–50%, 3 for 51–75% and 4 for 76–100%[22]. At least 10 areas were randomly selected in the cortex per slide.
Kidney tissue samples were mounted in O.C.T. compound medium (Tissue-Tek) for cryosectioning (4 μm). Sections were immediately fixed in 10% buffered formalin, washed, dehydrated and stored at -20°C. Before immunofluorescence staining, the tissue sections were rehydrated and blocked with 10% horse medium (diluted with PBS solution) for 1 hour at room temperature and incubated at 4°C overnight with indicated primary antibodies. Then sections were exposed to second antibodies labeled with Cy5 red or FITC green (Jackson ImmunoResearch Inc., West Grove, PA, United States). The nuclei were counterstained with DAPI (1:500, Life Technologies Corporation, OR, United States). The images were captured with AxioCam HRc digital camera (Carl Zeiss).
Kidney tissue or cultured cell samples were sufficiently lysed in the mixture of RIPA buffer (50 mM Tris (pH7.4), 150 mM NaCl, 1% TritonX-100, 1% sodium deoxycholate, 0.1% SDS) containing 4% cocktail proteinase inhibitor (Roche, Switzerland) on ice. After centrifuged at 13,000 rpm for 15 min at 4°C, supernate of the homogenate were collected for protein quantification. Protein equivalent to 50 ug were loaded into 10–12% SDS-PAGE gels for electrophoretic separation, and then transferred to polyvinylidene difluoride (PVDF) membranes (0.2 μm, Bio-Rad Laboratories, Inc.). After protein blotting, membranes were blocks using 5% non-fat dried milk for 1h at room temperature, then probed with primary antibodies at 4°C overnight, and incubated with secondary antibodies for 1h at room temperature. […]

[2] = glycerol+F7 vs glycerol group, F7 40 mg/kg/d oral for 3 days
[3] = western blot, F7 40 mg/kg/d for 3 days

Chain of HDAC5 (Q9UQL6 whole entry, species assumed): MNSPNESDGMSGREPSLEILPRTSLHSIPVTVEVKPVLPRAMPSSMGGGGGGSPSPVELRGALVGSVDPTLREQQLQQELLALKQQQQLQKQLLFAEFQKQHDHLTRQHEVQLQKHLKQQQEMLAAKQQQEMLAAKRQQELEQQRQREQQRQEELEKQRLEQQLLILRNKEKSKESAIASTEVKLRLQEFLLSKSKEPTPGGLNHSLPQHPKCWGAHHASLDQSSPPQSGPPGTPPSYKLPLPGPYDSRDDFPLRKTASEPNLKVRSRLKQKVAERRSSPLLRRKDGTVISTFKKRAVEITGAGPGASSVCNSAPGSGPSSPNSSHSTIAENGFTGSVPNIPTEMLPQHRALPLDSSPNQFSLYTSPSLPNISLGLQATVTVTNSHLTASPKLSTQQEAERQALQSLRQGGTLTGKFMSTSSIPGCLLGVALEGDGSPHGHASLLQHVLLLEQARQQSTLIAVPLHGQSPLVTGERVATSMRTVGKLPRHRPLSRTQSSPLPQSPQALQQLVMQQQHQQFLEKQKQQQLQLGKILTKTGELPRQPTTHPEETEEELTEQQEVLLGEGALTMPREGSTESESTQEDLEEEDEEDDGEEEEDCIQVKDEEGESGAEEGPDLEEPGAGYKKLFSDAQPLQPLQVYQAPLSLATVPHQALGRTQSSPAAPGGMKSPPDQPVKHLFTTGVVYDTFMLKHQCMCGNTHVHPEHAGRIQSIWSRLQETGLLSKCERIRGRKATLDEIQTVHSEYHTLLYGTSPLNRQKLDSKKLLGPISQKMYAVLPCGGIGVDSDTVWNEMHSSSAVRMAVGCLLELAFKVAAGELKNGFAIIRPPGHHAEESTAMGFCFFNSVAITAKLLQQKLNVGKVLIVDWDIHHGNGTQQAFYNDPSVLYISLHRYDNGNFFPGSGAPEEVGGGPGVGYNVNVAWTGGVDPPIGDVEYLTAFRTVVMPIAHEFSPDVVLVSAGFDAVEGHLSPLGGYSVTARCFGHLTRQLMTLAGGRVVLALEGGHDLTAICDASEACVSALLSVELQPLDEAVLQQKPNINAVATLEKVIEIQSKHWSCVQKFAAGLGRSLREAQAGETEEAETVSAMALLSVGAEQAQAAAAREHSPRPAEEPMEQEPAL
Chain of HDAC4 (P56524 whole entry, species assumed): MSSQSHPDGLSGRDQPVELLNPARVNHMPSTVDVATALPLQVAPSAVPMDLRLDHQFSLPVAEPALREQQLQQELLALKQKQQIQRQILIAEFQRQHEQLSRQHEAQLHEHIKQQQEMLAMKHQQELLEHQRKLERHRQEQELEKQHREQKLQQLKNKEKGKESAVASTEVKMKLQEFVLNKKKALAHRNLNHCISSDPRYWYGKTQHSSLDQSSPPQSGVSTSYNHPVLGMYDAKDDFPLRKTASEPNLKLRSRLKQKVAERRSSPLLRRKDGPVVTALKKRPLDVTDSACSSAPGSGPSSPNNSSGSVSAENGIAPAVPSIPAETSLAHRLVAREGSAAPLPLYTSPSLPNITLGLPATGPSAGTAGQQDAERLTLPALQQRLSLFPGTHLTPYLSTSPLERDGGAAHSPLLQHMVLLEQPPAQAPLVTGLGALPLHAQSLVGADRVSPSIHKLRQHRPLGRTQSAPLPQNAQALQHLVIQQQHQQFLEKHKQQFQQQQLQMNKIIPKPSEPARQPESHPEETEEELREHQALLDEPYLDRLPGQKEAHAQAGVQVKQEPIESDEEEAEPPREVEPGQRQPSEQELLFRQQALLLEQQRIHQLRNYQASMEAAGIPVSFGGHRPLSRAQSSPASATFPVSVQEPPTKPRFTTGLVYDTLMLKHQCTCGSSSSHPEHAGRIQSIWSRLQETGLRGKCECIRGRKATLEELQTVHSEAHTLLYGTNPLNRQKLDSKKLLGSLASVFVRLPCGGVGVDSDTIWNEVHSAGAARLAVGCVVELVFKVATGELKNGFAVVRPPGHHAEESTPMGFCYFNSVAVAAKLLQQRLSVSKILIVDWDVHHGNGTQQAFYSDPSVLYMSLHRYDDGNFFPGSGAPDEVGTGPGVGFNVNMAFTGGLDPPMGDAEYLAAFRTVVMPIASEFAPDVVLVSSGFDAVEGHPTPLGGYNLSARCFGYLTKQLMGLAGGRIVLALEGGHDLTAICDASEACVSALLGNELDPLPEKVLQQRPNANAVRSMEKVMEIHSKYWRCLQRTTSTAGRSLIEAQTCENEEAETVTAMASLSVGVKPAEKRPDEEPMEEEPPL

**Q.** `Cc1nc(N(C)c2ccc(Oc3ccc(C(=O)NO)cn3)cc2)c2ccccc2n1` [F7, N-hydroxy-6-(4-(methyl(2-methylquinazolin-4-yl)amino)phenoxy)nicotinamide] was tested. Which pIC50 (HDAC4) did it give?
**A.** < 5.00

**Q.** What about the pIC50 (HDAC5) of the same compound?
**A.** < 5.00

**Q.** What about the “IL-β and TNF-α in serum and kidney lysates” value ([1]; ELISA, F7 40 mg/kg/d for 3 days) of the same compound?
**A.** decreased

**Q.** And the “NGAL expression in tubules (immunofluorescence staining)” value ([1]; F7 40 mg/kg/d for 3 days)?
**A.** largely diminished

**Q.** And the “pathological injuries (tubular damage, H&E and PAS staining)” value ([1]; F7 40 mg/kg/d oral for 3 days pretreatment)?
**A.** effectively alleviated

**Q.** What about the “Serum creatine kinase (CK)” value ([1]; glycerol+F7 group vs control, 24 hours after glycerol injection, F7 40 mg/kg/d oral for 3 days) of the same compound?
**A.** markedly elevated

**Q.** And the “serum creatinine (sCr)” value [1, 2]?
**A.** remarkably decreased

**Q.** And the “serum urea (UREA)” value [1, 2]?
**A.** remarkably decreased

**Q.** What about the “NGAL mRNA expression and protein expression” value ([1]; real-time PCR and immunoblot, F7 40 mg/kg/d for 3 days) of the same compound?
**A.** markedly reduced

**Q.** What about the “mRNA level of IL-6 and TNF-α in kidney” value ([1]; real-time PCR, F7 40 mg/kg/d for 3 days) of the same compound?
**A.** significantly decreased

**Q.** What about the “expression of HDAC6 in the damaged kidney” value ([1]; western blot and immunofluorescence, F7 40 mg/kg/d for 3 days) of the same compound?
**A.** significantly inhibited

**Q.** What about the “IκBα phosphorylation in kidney” value [1, 3] of the same compound?
**A.** decreased

**Q.** And the “NF-κB p65 phosphorylation in kidney” value [1, 3]?
**A.** effectively down-regulated

**Q.** What about the “acetylation of histone H3 and α-tubulin in kidney” value [1, 3] of the same compound?
**A.** enhanced

**Q.** What about the “p38 phosphorylation in kidney” value [1, 3] of the same compound?
**A.** effectively inhibited

**Q.** And the “proinflammatory cytokines IL-6 and IL-β protein levels in kidney” value [1, 3]?
**A.** remarkably down-regulated

**Q.** And the “total ERK1/2 expression in kidney” value [1, 3]?
**A.** effectively inhibited

**Q.** What about the “ERK1/2 phosphorylation in kidney” value ([1]; western blot, F7 treatment group) of the same compound?
**A.** no significant ERK1/2 phosphorylation reduction
